Results: paper PMC2263054, “Functional evolution of the vitamin D and pregnane X receptors” (BMC Evolutionary Biology, 2007)
Like-named read-outs stand apart in the source and are kept apart here.

How the values were obtained:
Sea lamprey VDR = target: T1, Sea lamprey VDR (Petromyzon marinus, UniProt Q7ZZY9); type: cell-based; conditions: HepG2-NTCP cells, luciferase reporter; unit not given; also cells saying No effect
T1 sequence (Q7ZZY9 92-406): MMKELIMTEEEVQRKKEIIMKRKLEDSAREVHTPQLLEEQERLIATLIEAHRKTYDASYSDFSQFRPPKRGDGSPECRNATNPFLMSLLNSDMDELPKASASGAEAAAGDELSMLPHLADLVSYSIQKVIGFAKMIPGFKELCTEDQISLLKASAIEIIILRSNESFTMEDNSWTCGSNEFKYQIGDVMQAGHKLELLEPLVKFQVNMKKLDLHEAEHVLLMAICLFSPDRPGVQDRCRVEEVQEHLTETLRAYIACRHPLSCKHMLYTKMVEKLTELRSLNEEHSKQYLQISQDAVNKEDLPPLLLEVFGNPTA

[1] = tested on: MDR1 (tentatively classified as ABCB5 in zebrafish); assay: zebrafish in vivo liver transcription, semi-quantitative RT-PCR: MDR1
Description: (§1) Adult zebrafish were purchased from a commercial fish supplier and acclimatized for at least two-weeks in 20 L tanks with flow-through freshwater at 22°C. A single dose of 15 mg/kg of 5α-cyprinol, 5β-cyprinol 27-sulfate, 5α-scymnol or 5β-scymnol-27 sulfate, dissolved in saline, was injected intraperitoneally. A control group was injected with saline. After 48 hr, the animals were decapitated and livers of three fish (n = 5 each group) were removed, pooled and weighed, totalizing 15 fish per group. Fish were not fed throughout the experimental period. […].
(§2) To study the transcription of CYP3C1, ABCB5, PXR, GAPDH and β-actin genes in zebrafish, initial fragments of these genes were identified (Genbank: AW202769, Genbank: BQ284593, Genbank: AAM22215, Genbank: BC083506, Genbank: AF057040, respectively). The PCR primers for CYP3C1 were designed using MacVector Software and primers for MDR1 were designed using Primer 3 Software (Whitehead Institute for Biomedical Research; [75]). Primer pairs for amplifying CYP3C1 fragment were 5'-[…]-3' (sense) and 5'-[…]-3' (antisense) and for amplifying ABCB5 were 5'-[…]-3' (sense) and 5'-[…]-3' (antisense). The PCR primers for PXR were 5'-[…]-3' (sense) and 5'-[…]-3' (antisense), for amplifying GAPDH were 5'-[…]-3' (sense) and 5' […] 3' (antisense) and for β-actin were 5'-[…]-3' (sense) and 5'-[…]-3' (antisense). RNA was isolated using Trizol (Invitrogen) according to manufacturer's instructions. Purity and concentration of RNA of each sample were verified at 260 nm. The RNA integrity was checked by non-denaturing gel electrophoresis using 1 μg of total RNA in each sample.
(§3) Two micrograms of total RNA were reversed transcribed using Ominiscript RT Kit (Qiagen, Valencia, CA, USA). cDNA concentration was checked at 260 nm, and the amount adjusted to 1 μg to perform semi-quantitative RT-PCR. The expected size of the PXR, Cyp3C1, abcb5, GAPDH and β-actin fragments were 577, 477, 218, 234 and 550 bp, respectively. Biotools DNA polymerase (Biotools B&M Labs, S.A., Madrid, Spain) kit was used for the PCR reaction using a thermocycler Personal Mastercycler (Eppendörf) with the following PCR program: 5 cycles of 94°C for 5 s, 72°C for 35 s; 5 cycles of 94°C for 5 s, 70°C for 10 s, 72°C for 35 s; and 23, 24, 35, 15 and 24 cycles (PXR, Cyp3C1, abcb5, GAPDH and β-actin, respectively) of 94°C for 5 s, 61, 54, 48, 49 and 61°C for 10 s (PXR, Cyp3C1, abcb5, GAPDH and β-actin, respectively), and 72°C for 35 s. The PXR, CYP3C1, ABCB5 and GAPDH transcript levels were quantified using Gel-Quant™ (Multiplexed Biotechologies) and β-actin was used to normalize the data. The Shapiro-Wilk W test was used to evaluate normality. When data were parametric the analysis was performed using Student t test; otherwise Mann Whitney U test was applied. […]

CYP3C1 = assay: zebrafish in vivo liver transcription, semi-quantitative RT-PCR: CYP3C1
Description: as §1, §2, §3

zebrafish PXR = conditions: cited from earlier work
Zebrafish VDR = target: T2, Zebrafish VDR (Danio rerio, UniProt Q9PTN2); assay: luciferase reporter transactivation assay in HepG2-NTCP cells, GAL4/zfVDR LBD chimera with tk-UAS-Luc; type: cell-based; conditions: HepG2-NTCP cells, luciferase reporter; unit not given; also cells saying No effect
T2 sequence (Q9PTN2 121-453): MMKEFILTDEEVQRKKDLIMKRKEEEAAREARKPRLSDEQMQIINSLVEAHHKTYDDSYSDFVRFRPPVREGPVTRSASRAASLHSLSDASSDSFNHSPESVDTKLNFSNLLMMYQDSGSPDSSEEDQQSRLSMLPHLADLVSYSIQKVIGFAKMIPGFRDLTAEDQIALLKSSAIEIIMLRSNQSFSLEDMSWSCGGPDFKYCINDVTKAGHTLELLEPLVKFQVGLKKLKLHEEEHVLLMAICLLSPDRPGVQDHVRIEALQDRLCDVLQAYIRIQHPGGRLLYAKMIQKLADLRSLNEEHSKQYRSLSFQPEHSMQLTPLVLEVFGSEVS

Mouse VDR = target: T3, Mouse VDR (Mus musculus, UniProt P48281); assay: luciferase reporter transactivation assay in HepG2-NTCP cells, full-length mVDR with CYP3A4-PXRE-Luc; conditions: HepG2-NTCP cells, luciferase reporter; unit not given; also cells saying No effect
T3 sequence (P48281 1-422): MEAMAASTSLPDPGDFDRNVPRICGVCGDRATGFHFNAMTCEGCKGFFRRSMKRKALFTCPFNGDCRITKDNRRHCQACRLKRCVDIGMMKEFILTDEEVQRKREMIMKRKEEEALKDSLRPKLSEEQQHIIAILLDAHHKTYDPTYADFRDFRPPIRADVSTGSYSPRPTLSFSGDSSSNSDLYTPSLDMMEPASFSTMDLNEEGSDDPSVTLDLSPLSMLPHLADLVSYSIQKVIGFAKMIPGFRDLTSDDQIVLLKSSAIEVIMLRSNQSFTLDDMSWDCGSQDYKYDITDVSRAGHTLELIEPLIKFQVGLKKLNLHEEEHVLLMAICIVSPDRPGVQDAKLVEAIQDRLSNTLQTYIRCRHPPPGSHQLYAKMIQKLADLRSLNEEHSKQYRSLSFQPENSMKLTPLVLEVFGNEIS

[2] = zebrafish, 15 mg/kg intraperitoneally, single dose, 48 hr

| SMILES | Sea lamprey VDR EC50 ± SD (Sea lamprey VDR) | liver transcription of MDR1 (ABCB5) [1, 2] | liver transcription of CYP3C1 (CYP3C1; [2]) | activity at recombinant zebrafish PXR (zebrafish PXR; ref [29],[53]) | Zebrafish VDR EC50 ± SD (Zebrafish VDR) | Mouse VDR EC50 ± SD (Mouse VDR) | liver transcription of MDR1 (ABCB5) ([1]; ip, 15 mg/kg, 48 h) | liver transcription of CYP3C1 (CYP3C1; ip, 15 mg/kg, 48 h) | activity at recombinant zebrafish PXR (zebrafish PXR) |
| --- | --- | --- | --- | --- | --- | --- | --- | --- | --- |
| C[C@H](CCCC(CO)COS(=O)(=O)O)[C@H]1CC[C@H]2[C@@H]3[C@H](O)C[C@H]4C[C@H](O)CC[C@]4(C)[C@H]3C[C@H](O)[C@]12C (stereo partly drawn) [5α-Cyprinol 27-sulfate] | No effect | 2.29 ± 0.75 arbitrary units normalized to β-actin | 1.71 ± 0.50 arbitrary units normalized to β-actin | efficacious activator of recombinant zebrafish PXR | No effect | No effect |  |  |  |
| C[C@H](CCCC(CO)CO)[C@H]1CC[C@H]2[C@@H]3[C@H](O)C[C@H]4C[C@H](O)CC[C@]4(C)[C@H]3C[C@H](O)[C@]12C [5α-Cyprinol, 5α-cholestan-3α,7α,12α,26,27-pentol] | No effect |  |  |  | No effect | No effect | 2.00 ± 1.00 arbitrary units normalized to β-actin | 1.33 ± 0.33 arbitrary units normalized to β-actin | both inactive at recombinant zebrafish PXR |
